Measurements published in ChEMBL document CHEMBL4831477, “Structure-Enabled Discovery of Novel Macrocyclic Inhibitors Targeting Glutaminase 1 Allosteric Binding Site” (J Med Chem, 2021).
Converted amounts (≈) assume the structure as drawn. The source made the active and inactive calls. The calls are words filed in the database; no cut-off is given here.

Columns and labels:
HCT-116 [1] = assay: Antiproliferative activity against human HCT116 cells assessed as reduction in cell viability incubated for 72 hrs by MTT assay; assay type: functional, cell-based; conditions: HCT-116, 72 h
HCT-116 [2] = assay: Antitumor activity against human HCT-116 cells xenografted in BALB/c nude mouse assessed as tumor growth inhibition at 200 mg/kg, po administered twice daily measured after 28 days; assay type: functional; conditions: Mus musculus, HCT-116, po, 672 h, time 28 day, read-out: TGI
HCT-116 [3] = assay: Antitumor activity against human HCT-116 cells xenografted in BALB/c nude mouse assessed as karyorrhexis at 200 mg/kg, po administered twice daily measured after 28 days by H and E staining based optical microscopic method; assay type: functional, organism-based; conditions: time 28.0 day
[4] = Metabolic stability in human plasma assessed as compound remaining after 2 hrs by LC-MS/MS analysis; assay type: ADME, cell-free; conditions: read-out: Stability
HCT-116 [5] = assay: Antineoplastic activity against human HCT-116 cells xenografted in po dosed BALB/c nude mouse administered twice daily measured after 28 days; assay type: functional, organism-based; conditions: dose 200.0 mg/kg, time 28.0 day
[6] = biological target: T1, Glutaminase kidney isoform, mitochondrial (Mus musculus) (UniProt D3Z7P3); assay: In vivo inhibition of GLS1 in BALB/c mouse xenografted with human HCT-116 cells assessed as reduction in aspartate level at 200 mg/kg, po; assay type: functional, organism-based
T1 sequence (whole entry): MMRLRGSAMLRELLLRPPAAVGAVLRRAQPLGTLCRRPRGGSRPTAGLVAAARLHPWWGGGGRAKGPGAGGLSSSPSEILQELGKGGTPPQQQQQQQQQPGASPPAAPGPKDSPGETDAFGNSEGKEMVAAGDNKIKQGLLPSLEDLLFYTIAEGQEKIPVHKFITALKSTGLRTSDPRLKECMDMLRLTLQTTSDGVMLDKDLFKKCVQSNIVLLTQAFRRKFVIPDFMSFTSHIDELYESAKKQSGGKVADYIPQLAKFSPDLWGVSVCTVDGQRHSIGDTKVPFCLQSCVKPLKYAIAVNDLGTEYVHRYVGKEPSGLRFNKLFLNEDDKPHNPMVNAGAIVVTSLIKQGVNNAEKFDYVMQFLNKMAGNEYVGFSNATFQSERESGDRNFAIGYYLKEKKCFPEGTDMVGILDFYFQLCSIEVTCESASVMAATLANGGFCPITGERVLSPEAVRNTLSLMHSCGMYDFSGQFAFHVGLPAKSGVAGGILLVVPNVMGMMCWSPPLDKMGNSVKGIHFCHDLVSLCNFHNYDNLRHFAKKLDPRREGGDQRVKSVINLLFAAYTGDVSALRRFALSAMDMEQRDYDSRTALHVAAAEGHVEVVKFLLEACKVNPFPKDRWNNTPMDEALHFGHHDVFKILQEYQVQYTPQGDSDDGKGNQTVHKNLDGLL

HCT-116 [7] = assay: Induction of ROS generation in human HCT-116 cells incubated for 6 hrs by DCFH-DA dye based flow cytometric analysis; assay type: functional, cell-based; conditions: dose 50-500 nM
Mus musculus = assay: Induction of ROS generation in BALB/c mouse xenografted with human HCT-116 cells at 200 mg/kg, po; assay type: functional, organism-based
[8] = Distribution coefficient, logD of the compound at pH 7.4 by LC-MS based shake-flask method; assay type: physicochemical; conditions: octanol/water, read-out: logD
[9] = Clearance in Sprague-Dawley rat at 200 mg/kg, po measured upto 72 hrs by LC-MS/MS analysis; assay type: ADME, organism-based; conditions: in vivo, 200 mg/kg, 72 h
[10] = Intrinsic aqueous solubility of compound at pH 7.4 by LC-MS based shake-flask method; assay type: physicochemical; conditions: read-out: Intrinsic_solubility
[11] = Toxicity in BALB/c nude mouse xenografted with human HCT-116 cells assessed as body weight loss at 200 mg/kg, po administered twice daily for 28 days and measured every 3 days; assay type: organism-based; conditions: in vivo, 672 h, time 28 day
[12] = Metabolic stability in mouse plasma assessed as compound remaining after 2 hrs by LC-MS/MS analysis; assay type: ADME, cell-free; conditions: read-out: Stability
[13] = biological target: T1, Glutaminase kidney isoform, mitochondrial (Mus musculus); assay: In vivo inhibition of GLS1 in BALB/c mouse xenografted with human HCT-116 cells assessed as reduction in glutathione level at 200 mg/kg, po; assay type: functional, organism-based
[14] = AUC(0 to infinity) in Sprague-Dawley rat at 200 mg/kg, po measured upto 72 hrs by LC-MS/MS analysis; assay type: ADME, organism-based; design: route oral, dose 200 mg/kg, time <=72; conditions: in vivo, 72 h
[15] = Acute toxicity in BALB/c nude mouse assessed as lung damage at 200 mg/kg, po administered twice daily for 4 weeks by H and E staining based optical microscopic analysis; assay type: organism-based; conditions: in vivo, 672 h
[16] = Half life in Sprague-Dawley rat at 5 mg/kg, iv measured upto 72 hrs by LC-MS/MS analysis; assay type: ADME, organism-based; conditions: in vivo
[17] = Oral bioavailability in Sprague-Dawley rat at 200 mg/kg measured upto 72 hrs by LC-MS/MS analysis; assay type: ADME, organism-based; conditions: in vivo
[18] = Acute toxicity in BALB/c nude mouse assessed as kidney damage at 200 mg/kg, po administered twice daily for 4 weeks by H and E staining based optical microscopic analysis; assay type: organism-based; conditions: in vivo, 672 h
[19] = Toxicity in BALB/c nude mouse xenografted with human HCT-116 cells assessed as tolerability at 200 mg/kg, po administered twice daily measured after 28 days; assay type: organism-based; conditions: in vivo, 672 h, time 28 day
HCT-116 [20] = assay: Inhibition of clone formation in human HCT-116 cells at 0.1 to 2 microM incubated for 14 days by crystal violet staining based assay; assay type: functional, cell-based; conditions: dose 0.1-2 µM, time 14.0 day
[21] = biological target: T1, Glutaminase kidney isoform, mitochondrial (Mus musculus); assay: In vivo inhibition of GLS1 in BALB/c mouse xenografted with human HCT-116 cells assessed as reduction in malate level at 200 mg/kg, po; assay type: functional, organism-based
[22] = Half life in Sprague-Dawley rat at 200 mg/kg, po measured upto 72 hrs by LC-MS/MS analysis; assay type: ADME, organism-based; conditions: in vivo
[23] = Metabolic stability in mouse liver microsomes assessed as clearance at 10 uM preincubated for 5 mins followed by NADPH addition by LC-MS/MS analysis; assay type: ADME, Microsome; conditions: read-out: CLH
[24] = Metabolic stability in mouse liver microsomes assessed as half life at 10 uM preincubated for 5 mins followed by NADPH addition by LC-MS/MS analysis; assay type: ADME, Microsome
[25] = Clearance in Sprague-Dawley rat at 5 mg/kg, iv measured upto 72 hrs by LC-MS/MS analysis; assay type: ADME, organism-based; conditions: Sprague-Dawley, in vivo
[26] = biological target: T1, Glutaminase kidney isoform, mitochondrial (Mus musculus); assay: In vivo inhibition of GLS1 in BALB/c mouse xenografted with human HCT-116 cells assessed as reduction in fumarate level at 200 mg/kg, po; assay type: functional, organism-based
[27] = biological target: T1, Glutaminase kidney isoform, mitochondrial (Mus musculus); assay: In vivo inhibition of GLS1 in BALB/c mouse xenografted with human HCT-116 cells assessed as reduction in alpha-ketoglutarate level at 200 mg/kg, po; assay type: functional, organism-based
[28] = Metabolic stability in human liver microsomes assessed as half life at 10 uM preincubated for 5 mins followed by NADPH addition by LC-MS/MS analysis; assay type: ADME, Microsome
[29] = Acute toxicity in BALB/c nude mouse assessed as liver damage at 200 mg/kg, po administered twice daily for 4 weeks by H and E staining based optical microscopic analysis; assay type: organism-based; conditions: in vivo, 672 h
[30] = Cmax in Sprague-Dawley rat at 200 mg/kg, po measured upto 72 hrs by LC-MS/MS analysis; assay type: ADME, organism-based; design: route oral, dose 200 mg/kg, time <=72; conditions: in vivo
[31] = Free plasma protein in mouse; assay type: ADME, cell-free

Q: Which results are given for `O=C1Cc2cccc(c2)OCC/C=C/CCOc2cccc(c2)CC(=O)Nc2nnc(s2)CCCCc2ccc(nn2)N1`?
A: IC50 (HCT-116 [1]): 0.08 µM; inhibition in vivo at 200 mg/kg (HCT-116 [2]): 39%; Activity (HCT-116 [3]): Active; remaining at 2 h [4]: 92%; Activity (HCT-116 [5]): Dose-Dependent Effect; inhibition [6]: Active; Activity (HCT-116 [7]): Dose-Dependent Effect; Activity (Mus musculus): Active; logD [8]: 3.13; CL [9]: 3.7 L/h/kg; solubility thermodynamic [10]: 1.73 µg/mL (≈ 2.89 µM); Activity [11]: Non-Toxic; remaining at 2 h [12]: 89%; inhibition [13]: Active; AUC [14]: 6.064 µg·h/mL; Activity [15]: Non-Toxic; half-life [16]: 6.3 h; bioavailability [17]: 9%; Activity [18]: Non-Toxic; Activity [19]: Non-Toxic; inhibition (HCT-116 [20]): Active; inhibition [21]: Active; half-life [22]: 5.7 h; microsomal CLint at 10 µM [23]: 7.6 µL/min/mg; half-life at 10 µM [24]: 1.7 h; clearance [25]: 3.2 L/h/kg; inhibition [26]: Active; inhibition [27]: Active; half-life at 10 µM [28]: 2.72 h; Activity [29]: Non-Toxic; Cmax [30]: 1.03 µg/mL; fraction unbound [31]: 0.129
